Legend:
[1] = tested on: MCF-7 (ER+) cells; assay: Proliferative (estrogenic) activity on MCF-7 (ER+) cells; type: cell-based; details: 7 days; for proliferation of MCF-7 (ER+) cells: 1 μM, control 100%
Protocol: The next step was to determine the presence or absence of estrogenic activity. To do so, cell proliferative assays were carried out on MCF-7 cells. […] Phenols of the corresponding sulfamate library 3-EO and 4-EO are referred to as library 3′-EO and library 4′-EO, respectively.
This cell assay was carried out according to a procedure previously described to determine the estrogenic activity of enzyme inhibitors on the growth of estrogen-sensitive MCF-7 cells.^77 All chemicals tested were first dissolved in DMSO and subsequent dilutions were done in the proper cell culture media. The final concentration of DMSO in the culture medium was 0.1% or less. 3-(4,5-dimethylthiazol-2-yl)-5-(3-carboxymethoxyphenyl)-2-(4-sulfophenyl)-2-H-tetrazolium (MTS) was used as an indirect colorimetric measurement of cell proliferation according to the manufacturer's instructions (Promega, Madison, Wis.). At the end of the treatments, 20 μL of MTS solution was added to each well (100 μL) and the MCF-7 cells were incubated 4 h at 37° C. The absorbance at 490 nm was then measured with a Thermo max microplate reader (Molecular Devices, Sunnyvale, Calif.). The control (culture media+DMSO) is set to 100% of cell proliferation.

[2] = tested on: T-47D cells; assay: T-47D cell proliferation (estrogenicity / cytotoxicity), MTS; type: cell-based
Protocol: The library of phenolic compounds described above was tested on estrogen-sensitive breast cancer T-47D cells.
In Table 1, cell proliferation of control cells is set to 100%. Results are expressed as mean±SD of one experiment in triplicate.
(§1) CellTitter 96® Aqueous One Solution Cell Proliferation Assay was used as an indirect colorimetric measurement of cell proliferation according to the manufacturer's instructions. Briefly, after the treatments, 20 μL of MTS solution was added to each well (100 μL) of the plates and incubated at 37° C. for 2 h (Saos-2) or 4 h (T-47D). The absorbance at 490 nm was then measured with a Thermo max microplate reader (Molecular Devices, Sunnyvale, Calif.). The control (culture media+DMSO) is set to 100% of cell proliferation.
(§2) The cells were plated in 96-well plates at a density of 3 000 cells/well and allowed to attach for 48 h. After this pre-incubation, the inhibitors and the reference compounds diluted in fresh culture media were added to the wells and replaced every 2 days for 7 days of treatment.

[3] = molecular target: T1, steroid sulfatase (STS) (Homo sapiens, UniProt P08842); assay: Steroid sulfatase (STS) inhibition, [3H]-E1S to [3H]-E1, homogenate of transfected HEK-293 cells; type: biochemical; details: transformation of E1S into E1 in homogenate of HEK-293 cells transfected with STS; read-out: Steroid Sulfatase Inhibition IC50
T1 construct: expressed in transfected cells; host or cells: HEK-293 cells stably transfected with STS (G418 selection), obtained from Dr. Van Luu-The; used as freeze-thaw homogenate
T1 sequence (P08842 22-583): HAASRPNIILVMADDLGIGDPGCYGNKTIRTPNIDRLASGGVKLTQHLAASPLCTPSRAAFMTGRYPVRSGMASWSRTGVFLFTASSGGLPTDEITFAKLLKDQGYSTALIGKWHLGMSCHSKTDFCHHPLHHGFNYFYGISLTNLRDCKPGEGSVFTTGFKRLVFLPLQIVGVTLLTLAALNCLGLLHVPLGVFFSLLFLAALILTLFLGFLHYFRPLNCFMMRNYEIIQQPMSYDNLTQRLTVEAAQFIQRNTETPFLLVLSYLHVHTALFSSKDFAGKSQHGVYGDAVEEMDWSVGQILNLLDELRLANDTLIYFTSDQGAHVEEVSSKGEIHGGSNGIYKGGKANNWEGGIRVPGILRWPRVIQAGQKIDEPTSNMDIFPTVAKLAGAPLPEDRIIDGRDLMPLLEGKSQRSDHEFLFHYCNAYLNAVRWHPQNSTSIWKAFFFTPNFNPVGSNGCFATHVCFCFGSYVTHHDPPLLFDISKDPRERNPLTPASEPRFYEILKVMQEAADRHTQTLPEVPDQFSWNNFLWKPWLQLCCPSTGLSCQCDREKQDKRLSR
Protocol: To test STS inhibition, we used homogenated HEK-293 cells overexpressing STS and evaluated the capacity of our compounds to inhibit the conversion of [^3H]-E1S into [^3H]-E1. […] This is outlined in FIG. 5.
An enzymatic assay previously described was used for the inhibition of the transformation of estrone sulfate (E1S) to estrone (E1) by STS.^72 Briefly, the transfected HEK-293 cells were homogenized by repeated (5 times) cycles of freezing (−80° C.) and thawing on ice (4° C.). The homogenates were then incubated for 2 h at 37° C. (shaking water bath) with or without inhibitors (0.01 μM-1 μM) in presence of [^3H]-E1S (9 nM), adjusted to 1 μM with E1S, in a Tris-acetate buffer (pH 7.4) containing 5 mM EDTA and 10% glycerol. After the incubation, 1 mL of xylene was added to each tube and the solutions were then centrifuged at 3000 rpm for 20 min to separate the organic ([^3H]-E1) and aqueous ([^3H]-E1S) phases. Once 500 μL of each phase was added to 10 mL of Biodegradable Counting Scintillant, the radioactivity of samples was recorded using a Wallac 1411 Liquid Scintillation Counter. The percentage of inhibition was determined by comparison with the control (buffer+homogenate+[^3H]-E1S) which was set to 0% of inhibition. IC50 value was obtained using GraphPad Prism 5 (GraphPad Software, La Jolla, Calif.).

[4] = tested on: T-47D cells; assay: T-47D cell proliferation in presence of E2 (antiestrogenicity); type: cell-based
Protocol: as §1, §2

[5] = tested on: osteoblast-like Saos-2 cells; assay: Saos-2 cell proliferation, MTS; type: cell-based; details: for Bone cells Saos-2 (ER+) SERM effect Proliferative activity (%): in percentage of control (100%; 0.1 nM of estradiol)
Description: First, we wanted to evaluate their effect on cell proliferation. […] This is outlined in FIG. 8A. […] One of the main roles of osteoblasts in bone tissue is to construct a calcified extracellular matrix.^15 As such, bone formation is not principally due to osteoblasts proliferation but rather osteoblasts maturation into mature osteocytes. […] This is outlined in FIG. 8B.
as §1
Saos-2 cells were suspended in phenol-red free McCoy's 5A medium supplemented with 10% charcoal-stripped FBS, penicillin (100 IU/mL) and streptomycin (100 μg/mL). The cells were seeded in 96-well plates at a density of 3 000 cells/well and allowed to attach. After 24 h, the inhibitors and the reference compounds diluted in fresh culture media were added to the wells and replaced every 2 days for 7 days of treatment.

[6] = tested on: alkaline phosphatase (ALP) activity in Saos-2 cells; assay: Alkaline phosphatase (ALP) activity in Saos-2 cells; type: cell-based
Protocol: ALP is an enzyme that releases inorganic phosphate from different intracellular substrates such as pyrophosphate and pyridoxal 5′-phosphate.^63 The inorganic phosphate is used in the formation of hydroxyapatite crystals which are then inserted in the extracellular protein scaffold to form the solid part of bone tissue.
Saos-2 cells were treated similarly as reported in the cell proliferation assay. The cells were seeded at a density of 2 000 cells/well and were treated with the inhibitors and the reference compounds for 3 days. The alkaline phosphatase (ALP) activity was measured using Sensolyte® pNPP Alkaline Phosphatase Assay Kit *Colorimetric* (AnaSpec, Fremont, Calif.) following the manufacturer's protocol. Briefly, after the 3 days of treatment, the cells were washed twice with washing buffer (provided with the kit) and lysed with 0.2% Triton X-100. The cell lysates were centrifuged and the supernatants were used to determine the ALP activity. The supernatants were deposed in a 96-well plate and incubated 30 min with a p-nitrophenyl phosphate solution (provided with the kit). The absorbance at 405 nm was measured with a Thermo max microplate reader (Molecular Devices, Sunnyvale, Calif.). The control (culture media+DMSO) is set to 100% of alkaline phosphatase activity.

[7] = tested on: Saos-2 (ER+) cells; assay: Proliferative activity on Saos-2 (ER+) cells, phenol library; type: cell-based; details: 1 μM (stated for reference compounds); 7 days; control 100%
Protocol: Estrogens are known to have a beneficial effect on bones. […] The phenol derivatives 3′-EO-09 to 3′-EO-11 and 3′-EO-14 to 3′-EO-17 were tested on the osteoblast-like cell line Saos-2 to further evaluate their SERM capacity (FIG. 13A).
The osteoblast-like Saos-2 cells were maintained in culture flasks (175 cm^2 growth area, BD Falcon) at 37° C. in a 5% CO2 humidified atmosphere and grown in McCoy's 5A medium supplemented with 10% fetal bovine serum (FBS), penicillin (100 IU/mL) and streptomycin (100 μg/mL). Penicillin/streptomycin mix, L-Glutamine, normal and charcoal-stripped FBS were purchased from Wisent, Inc. (St-Bruno, QC, Canada), phenol-red free McCoy's 5A was purchased from PromoCell (Heidelberg, Germany). Chemicals tested were first dissolved in DMSO and subsequent dilutions were done in the cell culture medium. The final concentration of DMSO in the culture medium was 0.1% or less. For the proliferation assay, the […] FBS in the culture medium was replaced with 10% charcoal-stripped FBS. The cells were seeded in 96-well plates at a density of 10 000 cells/well and allowed to attach 24 h. After 24 h, the phenolic compounds diluted in culture medium were added to the wells and replaced every 2 days for 7 days of treatment. As reported above, MTS was used as an indirect colorimetric measurement of cell proliferation according to the manufacturer's instructions, except the plate were incubated 2 h instead of 4 h.

[8] = tested on: alkaline phosphatase activity in Saos-2 cells; assay: Alkaline phosphatase assay (Saos-2 cells), phenol library; type: cell-based; details: 1 nM; control (no treatment) fixed at 100%
Protocol: We also investigated the effect of selected phenol derivatives on alkaline phosphatase activity in Saos-2 cells (FIG. 13B).
Saos-2 cells were used similarly as reported in the cell proliferation assay. The cells were seeded at a density of 2 000 cells/well and treated for 3 days with each compound to be tested. The alkaline phosphatase (ALP) activity was measured using the Sensolyte® pNPP Alkaline Phosphatase Assay Kit *Colorimetric* (AnaSpec, Freemont, Calif.) following the manufacturer's protocol. Briefly, after three days of treatment, the cells were washed twice with washing buffer (provided with the kit) and lysed with 0.2% Triton X-100. The cell lysates were centrifuged and the supernatants were used to determine ALP activity. The supernatants were deposed in a 96-well plate and incubated for 30 minutes with a p-nitrophenyl phosphate solution (provided with the kit). The absorbance at 405 nm was measured with a Thermo max microplate reader (Molecular Devices, Sunnyvale, Calif.). The control (culture media+DMSO) is set to 100% of alkaline phosphatase activity.

[9] = tested on: uterus weight of ovariectomized mice (OVX); details: cited from earlier work
[10] = tested on: AR+ tissues (prostate and seminal vesicles); details: cited from earlier work
[11] = 1 μM, in % of control (100%; 0.1 nM of estradiol)

CCN(Cc1ccc(C(=O)N2CCc3ccc(O)cc3C2)cc1)Cc1cccc(Br)c1 [3′-EO-12]
proliferation of MCF-7 (ER+) cells [1]: 118%

Cl.O=C(c1ccc(OCCN2CCCCC2)cc1)c1c(-c2ccc(O)cc2)sc2cc(O)ccc12 [raloxifene, Raloxifene hydrochloride, reference compound]
estrogenic activity on T-47D cells ([2]; 0.01 μM to 5 μM, 7 days): no estrogenic activity
Breast cancer cells T-47D (ER+) Agonist activity (%) [2, 11]: 0%
cytotoxicity on T-47D cells ([2]; 5 μM): induced some cytotoxicity
IC50 [3]: > 1000 nM
block of E2 stimulation of T-47D proliferation ([4]; 0.01 μM to 1 μM, E2 0.1 nM): able to block the E2 stimulation
Breast cancer cells T-47D (ER+) Antagonist activity (%) [4, 11]: 96%
cytotoxicity on T-47D cells in presence of E2 ([4]; 5 μM, E2 0.1 nM): some cytotoxicity
Saos-2 cell proliferation, dose response ([5]; 1 nM to 1 μM, 7 days): apparent dose-dependent response
Bone cells Saos-2 (ER+) SERM effect Proliferative activity (%) ([5]; 0.1 μM): 75%
Bone cells Saos-2 (ER+) SERM effect Proliferative activity (%) ([5]; 1 μM): 83%
Bone cells Saos-2 (ER+) SERM effect Alkaline phosphatase activity (%) ([6]; 0.1 nM): 86%
stimulation of ALP activity in presence of ICI-164,384 or MPP + PHTPP ([6]; 0.1 nM compound, antagonists 1 μM, 3 days): completely blocked the stimulation
proliferation of Saos-2 cells [7]: 123%

CC/C(=C(\c1ccccc1)c1ccc(OCCN(C)C)cc1)c1ccccc1 [tamoxifen, reference compound]
ALP activity in Saos-2 cells [8]: 143%

CN(C)CCCN(Cc1ccccc1)Cc1ccc(C(=O)N2CCc3ccc(O)cc3C2)cc1 [3′-EO-05]
proliferation of MCF-7 (ER+) cells [1]: 126%

CCN(Cc1ccc(Br)cc1)Cc1ccc(C(=O)N2CCc3ccc(O)cc3C2)cc1 [3′-EO-13]
proliferation of MCF-7 (ER+) cells [1]: 177%

CCN(Cc1ccc(C(=O)N2CCc3ccc(O)cc3C2)cc1)Cc1ccccn1 [3′-EO-14]
proliferation of Saos-2 cells [7]: 140%
ALP activity in Saos-2 cells [8]: 147%

CCN(Cc1ccc(F)cc1)Cc1ccc(C(=O)N2CCc3ccc(O)cc3C2)cc1 [3′-EO-17]
ALP activity in Saos-2 cells [8]: 152%

COc1cc2c(cc1OS(N)(=O)=O)CC[C@@H]1[C@@H]2CC[C@@]2(C)[C@H]1CC[C@@]2(O)Cc1ccccc1 [EM-1913, 3-O-sulfamate 17α-benzyl-2-methoxy-estra-1,3,5(10)-trien-17β-ol]
estrogenic activity: uterus weight of OVX mice ([9]; compound alone): did not stimulate the uterus weight
stimulation of uterine weight induced by E1S in OVX mice ([9]; with E1S): effectively blocked
androgenic effect in the absence of DHEAS ([10]; injected in the absence of DHEAS): No more harmful androgenic effect was detected
effect of DHEAS on the weight of AR+ tissues (prostate and seminal vesicles) ([10]; with DHEAS): block the effect of DHEAS

O=C(c1ccc(CN(Cc2ccccc2)Cc2ccco2)cc1)N1CCc2ccc(O)cc2C1 [3′-EO-11]
stimulation of MCF-7 cell growth ([1]; 0.01 μM, 0.1 μM and 1 μM): did not stimulate

O=C(c1ccc(CN(CCO)Cc2ccccc2)cc1)N1CCc2ccc(O)cc2C1 [3′-EO-02]
proliferation of MCF-7 (ER+) cells [1]: 135%
